Results taken from ChEMBL document CHEMBL5291721, “A preclinical secondary pharmacology resource illuminates target-adverse drug reaction associations of marketed drugs” (Nat Commun, 2023).

Legend:
[1] = target: T1, Adenosine receptor A3 (Homo sapiens, UniProt P0DMS8)
T1 sequence (P0DMS8 whole entry): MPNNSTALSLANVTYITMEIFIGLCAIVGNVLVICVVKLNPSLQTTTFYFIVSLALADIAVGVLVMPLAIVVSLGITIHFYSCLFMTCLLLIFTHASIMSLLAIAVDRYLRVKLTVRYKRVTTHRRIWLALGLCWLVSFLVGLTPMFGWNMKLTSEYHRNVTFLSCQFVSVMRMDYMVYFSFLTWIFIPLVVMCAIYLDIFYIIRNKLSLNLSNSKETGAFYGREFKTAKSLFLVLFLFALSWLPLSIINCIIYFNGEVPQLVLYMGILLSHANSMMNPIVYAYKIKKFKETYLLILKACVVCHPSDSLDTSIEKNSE

[2] = target: T2, 5-hydroxytryptamine receptor 1A (Homo sapiens, UniProt P08908); format: functional, cell-based
T2 sequence (P08908 whole entry): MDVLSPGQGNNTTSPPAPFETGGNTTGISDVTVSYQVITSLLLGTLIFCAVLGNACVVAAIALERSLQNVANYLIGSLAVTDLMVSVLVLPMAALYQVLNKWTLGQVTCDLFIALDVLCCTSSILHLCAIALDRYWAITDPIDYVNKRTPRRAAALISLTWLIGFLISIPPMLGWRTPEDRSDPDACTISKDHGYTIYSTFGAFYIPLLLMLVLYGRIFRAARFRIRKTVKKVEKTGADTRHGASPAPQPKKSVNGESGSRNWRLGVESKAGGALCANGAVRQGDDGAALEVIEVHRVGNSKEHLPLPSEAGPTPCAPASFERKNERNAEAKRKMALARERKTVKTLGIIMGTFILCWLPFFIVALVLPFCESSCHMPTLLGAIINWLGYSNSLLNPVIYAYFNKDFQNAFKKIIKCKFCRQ

[3] = target: T3, Gastrin/cholecystokinin type B receptor (Homo sapiens, UniProt P32239)
T3 sequence (P32239 whole entry): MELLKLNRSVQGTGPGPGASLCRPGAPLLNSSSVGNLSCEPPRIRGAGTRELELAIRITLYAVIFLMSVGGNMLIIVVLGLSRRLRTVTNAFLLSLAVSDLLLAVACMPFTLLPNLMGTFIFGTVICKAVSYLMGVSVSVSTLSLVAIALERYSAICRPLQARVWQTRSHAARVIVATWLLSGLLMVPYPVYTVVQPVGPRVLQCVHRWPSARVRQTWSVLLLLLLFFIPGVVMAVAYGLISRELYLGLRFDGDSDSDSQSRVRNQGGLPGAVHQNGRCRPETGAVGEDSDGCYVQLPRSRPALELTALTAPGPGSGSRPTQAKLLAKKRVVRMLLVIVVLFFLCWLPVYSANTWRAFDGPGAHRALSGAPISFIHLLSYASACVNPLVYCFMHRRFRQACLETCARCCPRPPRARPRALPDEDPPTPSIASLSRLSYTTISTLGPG

[4] = target: T4, Prostaglandin G/H synthase 1 (Rattus norvegicus, UniProt Q63921); format: functional
T4 sequence (Q63921 whole entry): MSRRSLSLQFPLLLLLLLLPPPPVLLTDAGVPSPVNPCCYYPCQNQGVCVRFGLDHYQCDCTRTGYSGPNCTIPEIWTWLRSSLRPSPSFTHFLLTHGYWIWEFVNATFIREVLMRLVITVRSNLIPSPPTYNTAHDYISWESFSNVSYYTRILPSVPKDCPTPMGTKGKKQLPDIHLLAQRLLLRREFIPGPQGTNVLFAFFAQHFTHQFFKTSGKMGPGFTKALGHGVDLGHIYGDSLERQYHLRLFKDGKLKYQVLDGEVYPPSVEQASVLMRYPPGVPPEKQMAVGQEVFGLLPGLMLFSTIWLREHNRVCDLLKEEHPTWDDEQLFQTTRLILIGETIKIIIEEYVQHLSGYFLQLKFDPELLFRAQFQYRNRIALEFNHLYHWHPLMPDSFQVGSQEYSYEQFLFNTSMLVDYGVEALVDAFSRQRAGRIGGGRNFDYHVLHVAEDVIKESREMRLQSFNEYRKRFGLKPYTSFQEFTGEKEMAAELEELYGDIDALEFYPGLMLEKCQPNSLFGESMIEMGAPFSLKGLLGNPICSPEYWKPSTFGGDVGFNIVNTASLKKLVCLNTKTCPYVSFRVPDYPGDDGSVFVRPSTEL

[5] = target: Delta-type opioid receptor (Homo sapiens, UniProt P41143)
Chain of Delta-type opioid receptor (P41143 whole entry): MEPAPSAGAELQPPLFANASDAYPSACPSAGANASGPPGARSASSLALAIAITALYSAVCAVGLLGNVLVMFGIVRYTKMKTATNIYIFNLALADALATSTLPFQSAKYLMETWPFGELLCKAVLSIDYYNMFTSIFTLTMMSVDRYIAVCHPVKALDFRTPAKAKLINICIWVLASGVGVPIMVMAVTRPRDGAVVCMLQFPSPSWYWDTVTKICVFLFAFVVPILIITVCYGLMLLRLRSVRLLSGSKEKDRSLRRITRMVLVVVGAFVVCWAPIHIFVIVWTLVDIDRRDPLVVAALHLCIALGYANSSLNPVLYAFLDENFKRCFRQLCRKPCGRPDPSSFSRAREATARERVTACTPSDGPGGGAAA

[6] = target: T5, Alpha-2A adrenergic receptor (Homo sapiens, UniProt P08913); format: functional, cell-based
T5 sequence (P08913 whole entry): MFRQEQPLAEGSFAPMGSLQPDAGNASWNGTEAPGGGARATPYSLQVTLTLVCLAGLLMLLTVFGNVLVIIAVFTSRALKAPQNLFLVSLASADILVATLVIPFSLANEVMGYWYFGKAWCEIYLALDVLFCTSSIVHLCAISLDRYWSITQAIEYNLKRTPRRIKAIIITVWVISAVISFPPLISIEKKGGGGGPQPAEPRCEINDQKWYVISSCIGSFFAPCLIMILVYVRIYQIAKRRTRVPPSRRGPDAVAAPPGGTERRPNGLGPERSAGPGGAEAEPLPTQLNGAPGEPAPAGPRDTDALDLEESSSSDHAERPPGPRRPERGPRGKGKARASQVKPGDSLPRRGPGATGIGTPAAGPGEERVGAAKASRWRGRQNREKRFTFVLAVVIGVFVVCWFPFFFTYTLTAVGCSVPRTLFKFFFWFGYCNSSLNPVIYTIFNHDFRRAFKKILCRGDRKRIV

[7] = target: Cannabinoid receptor 1 (Homo sapiens, UniProt P21554); format: functional, cell-based
Chain of Cannabinoid receptor 1 (P21554 whole entry): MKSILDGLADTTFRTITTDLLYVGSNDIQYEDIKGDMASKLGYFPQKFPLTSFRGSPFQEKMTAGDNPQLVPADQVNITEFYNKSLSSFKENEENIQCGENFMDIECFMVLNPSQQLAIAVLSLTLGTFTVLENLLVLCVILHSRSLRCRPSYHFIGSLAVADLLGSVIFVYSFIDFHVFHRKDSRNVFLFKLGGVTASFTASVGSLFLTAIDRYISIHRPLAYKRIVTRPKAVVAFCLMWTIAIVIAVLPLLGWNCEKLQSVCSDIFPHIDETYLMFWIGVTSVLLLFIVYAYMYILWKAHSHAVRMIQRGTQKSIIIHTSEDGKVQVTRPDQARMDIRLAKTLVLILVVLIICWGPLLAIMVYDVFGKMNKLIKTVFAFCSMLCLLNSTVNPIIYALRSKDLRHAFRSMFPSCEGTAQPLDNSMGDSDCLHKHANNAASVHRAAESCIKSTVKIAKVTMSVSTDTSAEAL

[8] = target: Adenosine receptor A2a (Homo sapiens, UniProt P29274)
Chain of Adenosine receptor A2a (P29274 whole entry): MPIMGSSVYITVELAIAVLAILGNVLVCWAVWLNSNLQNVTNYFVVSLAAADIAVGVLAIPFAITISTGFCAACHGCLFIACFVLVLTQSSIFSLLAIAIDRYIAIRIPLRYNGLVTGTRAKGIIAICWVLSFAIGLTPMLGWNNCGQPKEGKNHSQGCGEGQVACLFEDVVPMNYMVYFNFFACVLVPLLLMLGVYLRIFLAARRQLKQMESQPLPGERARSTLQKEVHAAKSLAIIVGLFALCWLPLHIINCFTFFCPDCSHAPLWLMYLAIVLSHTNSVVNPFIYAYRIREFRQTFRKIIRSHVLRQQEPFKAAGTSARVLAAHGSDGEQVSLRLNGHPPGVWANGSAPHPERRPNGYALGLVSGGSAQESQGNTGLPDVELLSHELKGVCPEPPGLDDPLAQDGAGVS
Further: assay procedure not described here.

Row | Structure (SMILES) | AC50 [1] [µM] | AC50 [2] [µM] | AC50 [3] [µM] | AC50 [4] [µM] | AC50 [5] [µM] | AC50 [6] [µM] | AC50 [7] [µM] | AC50 [8] [µM]
1 | CC[C@@H](C(N)=O)N1CCCC1=O | > 30 | > 30 | > 30 | > 30 | > 30 | > 30 | > 30 | > 30
2 | CCC(CC)(CC(=O)Nc1cccc(/C=C/c2nc(C3CCC3)cs2)c1)C(=O)O | 13.9 | – | > 30 | > 30 | – | – | – | > 30
3 | CCCC1O[C@@H]2C[C@H]3[C@@H]4CCC5=CC(=O)C=C[C@]5(C)[C@H]4[C@@H](O)C[C@]3(C)[C@]2(C(=O)CO)O1 (stereo not given in full) [BUDESONIDE] | > 10 | > 10 | – | > 10 | > 30 | > 10 | – | > 10
4 | C=CCN1C[C@H](C(=O)N(CCCN(C)C)C(=O)NCC)C[C@@H]2c3cccc4[nH]cc(c34)C[C@H]21 [CABERGOLINE] | > 10 | 0.162 | – | > 10 | > 30 | – | > 30 | > 10
5 | NC1CCN(c2c(F)cc3c(=O)c(C(=O)O)cn(C4CC4)c3c2Cl)C1 (stereo not given) [CLINAFLOXACIN] | – | – | – | – | 18 | – | – | –
6 | CN1CCN(C2=Nc3ccccc3Sc3ccc(Cl)cc32)CC1 [CLOTHIAPINE] | – | > 30 | – | – | 22 | > 30 | – | –
7 | CN(C)CCC=C1c2ccccc2C=Cc2ccccc21 [CYCLOBENZAPRINE] | > 30 | > 10 | > 30 | > 30 | > 30 | > 10 | > 30 | > 30
8 | CCOc1ccc(Cc2cc([C@@H]3O[C@H](CO)[C@@H](O)[C@H](O)[C@H]3O)ccc2Cl)cc1 [DAPAGLIFLOZIN] | > 30 | – | > 30 | > 30 | > 30 | – | – | > 30
9 | CN(C)CC/C=C1\c2ccccc2CSc2ccccc21 [DOTHIEPIN] | > 30 | > 30 | > 30 | > 30 | > 30 | > 30 | > 30 | > 30
10 | CC[C@H]1CN2CCc3cc(OC)c(OC)cc3[C@@H]2C[C@@H]1C[C@H]1NCCc2cc(OC)c(OC)cc21 [EMETINE] | > 30 | > 30 | > 30 | > 30 | > 30 | > 30 | > 30 | > 30
11 | COc1ccc(C(=O)Nc2ccccc2CCC2CCCCN2C)cc1 (stereo not given) [ENCAINIDE] | > 30 | > 10 | > 30 | > 30 | > 30 | > 10 | > 30 | > 30
12 | O=[N+]([O-])O[C@@H]1CO[C@H]2[C@@H]1OC[C@@H]2O [ISOSORBIDE MONONITRATE] | > 30 | > 10 | > 30 | > 30 | > 30 | > 10 | – | > 30
13 | Cc1cc(C)c(NC(=O)CN(CC(=O)O)CC(=O)O)c(C)c1Br [MEBROFENIN] | – | – | – | – | > 30 | > 30 | > 30 | –
14 | COc1ccccc1N1CCN(CC(O)COc2cccc3ccccc23)CC1 (stereo not given) [NAFTOPIDIL] | > 30 | > 30 | – | > 30 | 12 | > 30 | > 30 | > 30
15 | COc1cc2nc(N3CCN(C(=O)c4ccco4)CC3)nc(N)c2cc1OC [PRAZOSIN] | > 30 | – | > 30 | > 30 | > 10 | – | > 30 | > 30
16 | O=[N+]([O-])c1cn2c(n1)OC[C@@H](OCc1ccc(OC(F)(F)F)cc1)C2 [PRETOMANID] | > 30 | – | > 30 | – | > 10 | – | – | > 30
17 | Cc1oc(=O)oc1CN1CCN(c2cc3c(cc2F)c(=O)c(C(=O)O)c2n3C(C)S2)CC1 (stereo not given) [PRULIFLOXACIN] | – | – | – | – | > 30 | > 30 | > 30 | –
18 | CCCCCNC(=N)N/N=C/c1c[nH]c2ccc(OC)cc12 [TEGASEROD] | 15.3 | > 30 | > 30 | 25 | > 30 | > 30 | – | > 30
19 | COC1=C(OC)C(=O)C(C/C=C(\C)CC/C=C(\C)CC/C=C(\C)CC/C=C(\C)CC/C=C(\C)CC/C=C(\C)CC/C=C(\C)CC/C=C(\C)CC/C=C(\C)CCC=C(C)C)=C(C)C1=O [UBIDECARENONE] | – | > 30 | – | – | > 30 | > 30 | > 30 | –
20 | CCOc1ccccc1OCC1CNCCO1 (stereo not given) [VILOXAZINE] | > 30 | > 10 | > 30 | > 30 | > 10 | > 10 | > 30 | > 30
21 | CN(C)CCc1c[nH]c2ccc(C[C@H]3COC(=O)N3)cc12 [ZOLMITRIPTAN] | > 30 | – | > 30 | > 30 | > 10 | > 30 | – | > 30
